Consider one compound from patent US6399828B1, “Preparation of amphetamines from phenylpropanolamines” (Boehringer Ingelheim Chemicals, Inc., priority 2001, dated 2002).

Data set [1] is described as follows: Stability of O-acetylnorephedrine hydrochloride stirred with water (rearrangement to N-acetylnorephedrine), HPLC analyses. Type of data set: physicochemical. On the procedure: Ammonium formate appears to catalyze the rearrangement of O-acetylnorephedrine hydrochloride to N-acetylnorephedrine. Three samples of O-acetylnorephedrine hydrochloride (Experiment Z recrystallized) were stirred with water for six hours respectively at room temperature, at 60° C., and at 60° C. with ammonium formate added. Samples were taken at intervals for HPLC analyses. […] At 60° C., the percentage of O-acetylnorephedrine hydrochloride decreased from 99.18 to 97.79 with the percentage of N-acetylnorephedrine increasing from 0.21% to 1.1% over a 6 hour period. […] The catalytic hydrogenation route therefore appears to be preferable to catalytic transfer hydrogenation in view of the induction period, gas evolution, and rearrangement potential.

Data set [2] in a line: Solubility of O-acetylnorephedrine hydrochloride in water (Experiment X).

`CC(=O)OC(c1ccccc1)C(C)N.Cl` (stereo not shown) [O-acetylnorephedrine hydrochloride, 2-Amino-1-acetoxy1-phenylpropane Hydrochloride]: the “percentage of O-acetylnorephedrine hydrochloride” value in data set [1] (water with ammonium formate, 60° C., by 6 hours) is given as 77.20%; in data set [1] (water with ammonium formate, 60° C., within 30 minutes), 91.23%; in data set [1] (water, 60° C., after 6 hours), 97.79%; in data set [1] (water, 60° C., start), 99.18%; in data set [1] (water, room temperature, after 6 hours) it was 99.12%; in data set [1] (water, room temperature, start), 99.30%. This compound yielded a solubility in water in data set [2] of 5.5 mL/g.
